Assay results from ChEMBL document CHEMBL4041467, “Synthesis of novel 15-membered 8a-azahomoerythromycin A acylides: Consequences of structural modification at the C-3 and C-6 position on antibacterial activity” (Eur J Med Chem, 2017).
≈ marks a conversion by molar mass, not a printed value.

Legend:
[1] = AUC(0 to t) in Han Wistar rat at 10 mg/kg, iv by LC-MS/MS analysis; assay type: ADME, organism-based; conditions: in vivo
Liver [2] = assay: Intrinsic clearance in rat liver microsomes at 1 uM after 60 mins in presence of NADP by LC-MS/MS analysis; assay type: ADME, microsome; conditions: 1 h
Plasma [3] = assay: Stability in rat plasma at 1 uM up to 120 mins by LC-MS/MS analysis; assay type: ADME, cell-free; conditions: 2 h
[4] = Metabolic stability in human liver microsomes assessed as parent compound remaining at 1 uM after 60 mins in presence of NADP by LC-MS/MS analysis; assay type: ADME, microsome; conditions: read-out: Stability
[5] = Protein binding in mouse plasma at 1 ug/ml by LC-MS/MS analysis; assay type: ADME, cell-free; conditions: read-out: PPB (converted)
[6] = AUC(0 to infinity) in Han Wistar rat at 30 mg/kg, po by LC-MS/MS analysis; assay type: ADME, organism-based; set-up: dose 30 mg/kg, time infinity, route oral; conditions: in vivo
Staphylococcus aureus [7] = assay: Antibacterial activity against constitutively macrolide/lincosamide/streptogramin B-resistant Staphylococcus aureus by agar microdilution method; assay type: functional
Liver [8] = assay: Intrinsic clearance in mouse liver microsomes at 1 uM after 60 mins in presence of NADP by LC-MS/MS analysis; assay type: ADME, microsome; conditions: 1 h
Streptococcus pneumoniae [9] = assay: Antibacterial activity against erythromycin susceptible Streptococcus pneumoniae infected in mouse assessed as increase in mouse survival administered orally 1 hr post infection; assay type: functional; conditions: po
[10] = AUC(0 to infinity) in Han Wistar rat at 10 mg/kg, iv by LC-MS/MS analysis; assay type: ADME, organism-based; set-up: dose 10 mg/kg, route intravenous, time infinity; conditions: in vivo
Staphylococcus aureus [11] = assay: Antibacterial activity against erythromycin susceptible Staphylococcus aureus by agar microdilution method; assay type: functional
Streptococcus pyogenes [12] = assay: Antibacterial activity against Mef-mediated macrolide efflux resistant Streptococcus pyogenes by agar microdilution method; assay type: functional
[13] = Metabolic stability in rat liver microsomes assessed as parent compound remaining at 1 uM after 60 mins in presence of NADP by LC-MS/MS analysis; assay type: ADME, microsome; conditions: read-out: Stability
Haemophilus influenzae = assay: Antibacterial activity against Haemophilus influenzae by agar microdilution method; assay type: functional
[14] = Fraction unbound in Han Wistar rat plasma at 10 mg/kg, iv by LC-MS/MS analysis; assay type: ADME, organism-based
Plasma [15] = assay: Drug uptake in Han Wistar rat plasma at 10 mg/kg, iv up to 8 hrs by LC-MS/MS analysis; assay type: ADME, organism-based; conditions: in vivo
[16] = Terminal half life in Han Wistar rat at 10 mg/kg, iv by LC-MS/MS analysis; assay type: ADME, organism-based; conditions: in vivo, read-out: beta t1/2 (converted)
Staphylococcus aureus [17] = assay: Antibacterial activity against erythromycin susceptible Staphylococcus aureus infected in mouse assessed as increase in mouse survival administered orally 1 hr post infection; assay type: functional; conditions: po
Streptococcus pneumoniae [18] = assay: Antibacterial activity against erythromycin susceptible Streptococcus pneumoniae by agar microdilution method; assay type: functional
[19] = Protein binding in human plasma at 1 ug/ml by LC-MS/MS analysis; assay type: ADME, cell-free; conditions: read-out: PPB (converted)
[20] = Cmax in Han Wistar rat at 30 mg/kg, po by LC-MS/MS analysis; assay type: ADME, organism-based; set-up: dose 30 mg/kg, route oral; conditions: in vivo
[21] = Volume of distribution at steady state in Han Wistar rat at 10 mg/kg, iv by LC-MS/MS analysis; assay type: ADME, organism-based; conditions: in vivo, read-out: Vdss
[22] = Tmax in Han Wistar rat at 30 mg/kg, po by LC-MS/MS analysis; assay type: ADME, organism-based; conditions: in vivo
[23] = Protein binding in rat plasma at 1 ug/ml by LC-MS/MS analysis; assay type: ADME, cell-free; conditions: read-out: PPB (converted)
[24] = Clearance in Han Wistar rat at 10 mg/kg, iv by LC-MS/MS analysis; assay type: ADME, organism-based; conditions: in vivo
[25] = Oral bioavailability in Han Wistar rat at 30 mg/kg by LC-MS/MS analysis; assay type: ADME, organism-based; conditions: in vivo
Streptococcus pyogenes [26] = assay: Antibacterial activity against constitutively macrolide/lincosamide/streptogramin B-resistant Streptococcus pyogenes by agar microdilution method; assay type: functional
Streptococcus pyogenes [27] = assay: Antibacterial activity against erythromycin susceptible Streptococcus pyogenes by agar microdilution method; assay type: functional
Rattus norvegicus = assay: Unbound clearance in Han Wistar rat at 10 mg/kg, iv by LC-MS/MS analysis; assay type: ADME, organism-based; conditions: in vivo
[28] = Cmax in Han Wistar rat at 10 mg/kg, iv by LC-MS/MS analysis; assay type: ADME, organism-based; set-up: dose 10 mg/kg, route intravenous; conditions: in vivo
Liver [29] = assay: Intrinsic clearance in human liver microsomes at 1 uM after 60 mins in presence of NADP by LC-MS/MS analysis; assay type: ADME, microsome; conditions: 1 h
[30] = AUC(0 to t) in Han Wistar rat at 30 mg/kg, po by LC-MS/MS analysis; assay type: ADME, organism-based; conditions: in vivo
Plasma [31] = assay: Drug uptake in Han Wistar rat plasma at 30 mg/kg, po up to 4 hrs by LC-MS/MS analysis; assay type: ADME, organism-based; conditions: in vivo
Streptococcus pneumoniae [32] = assay: Antibacterial activity against constitutively macrolide/lincosamide/streptogramin B-resistant Streptococcus pneumoniae by agar microdilution method; assay type: functional
Staphylococcus aureus [33] = assay: Antibacterial activity against inducibly macrolide/lincosamide/streptogramin B-resistant Staphylococcus aureus by agar microdilution method; assay type: functional
[34] = Metabolic stability in mouse liver microsomes assessed as parent compound remaining at 1 uM after 60 mins in presence of NADP by LC-MS/MS analysis; assay type: ADME, microsome; conditions: read-out: Stability
Staphylococcus aureus [35] = assay: Potency index, ratio of clarithromycin ED50 to compound ED50 for erythromycin susceptible Staphylococcus aureus infected in mouse; assay type: functional
[36] = Oral bioavailability in Han Wistar rat at 20 mg/kg by LC-MS/MS analysis; assay type: ADME, organism-based; conditions: in vivo
[37] = Cmax in Han Wistar rat at 20 mg/kg, po by LC-MS/MS analysis; assay type: ADME, organism-based; set-up: dose 20 mg/kg, route oral; conditions: in vivo
Streptococcus pneumoniae [38] = assay: Antibacterial activity against Mef-mediated macrolide efflux resistant Streptococcus pneumoniae by agar microdilution method; assay type: functional
[39] = AUC(0 to infinity) in Han Wistar rat at 20 mg/kg, po by LC-MS/MS analysis; assay type: ADME, organism-based; set-up: dose 20 mg/kg, time infinity, route oral; conditions: in vivo
[40] = AUC(0 to t) in Han Wistar rat at 20 mg/kg, po by LC-MS/MS analysis; assay type: ADME, organism-based; conditions: in vivo
[41] = Tmax in Han Wistar rat at 20 mg/kg, po by LC-MS/MS analysis; assay type: ADME, organism-based; conditions: in vivo
Streptococcus pneumoniae [42] = assay: Potency index, ratio of clarithromycin ED50 to compound ED50 for erythromycin susceptible Streptococcus pneumoniae infected in mouse; assay type: functional
Staphylococcus aureus [43] = assay: Ratio of MIC for inducibly macrolide/lincosamide/streptogramin B-resistant Staphylococcus aureus to MIC for erythromycin susceptible Staphylococcus aureus; assay type: functional

## C=CCO[C@]1(C)C[C@@H](C)NC(=O)[C@H](C)[C@@H](O)[C@](C)(O)[C@@H](CC)OC(=O)[C@H](C)[C@@H](OC(=O)CCNCCNc2cc3c(=O)c(C(=O)O)cn(C4CC4)c3cc2Cl)[C@H](C)[C@H]1O[C@@H]1O[C@H](C)C[C@H](N(C)C)[C@H]1O
[1]
  AUC(0-t): 2450 to 5340 ng·h/mL
Liver [2]
  CLH: < 0.6 mL/min/g
Plasma [3]
  Stability: Stable
[4]
  remaining at 1 h, 1 µM: 99%
[5]
  fraction unbound at 1 ug/ml: 0.45
[6]
  AUC(0-inf): 510 ng·h/mL
Staphylococcus aureus [7]
  MIC: > 64 µg/mL
Liver [8]
  CLH: < 0.6 mL/min/g
Streptococcus pneumoniae [9]
  ED50: 46.5 mg/kg
[10]
  AUC(0-inf): 4080 ng·h/mL
Staphylococcus aureus [11]
  MIC: ≤ 0.125 µg/mL
Streptococcus pyogenes [12]
  MIC: 0.25 µg/mL (≈ 0.248 µM)
[13]
  remaining at 1 h, 1 µM: 100%
Haemophilus influenzae
  MIC: 2 µg/mL (≈ 1.99 µM)
[14]
  fraction unbound: 0.63
Plasma [15]
  Drug uptake: Active
[16]
  half-life: 1.6 h
Staphylococcus aureus [17]
  ED50: 26.5 mg/kg
Streptococcus pneumoniae [18]
  MIC: ≤ 0.125 µg/mL
[19]
  fraction unbound at 1 ug/ml: 0.51
[20]
  Cmax: 440 ng/mL
[21]
  Vd: 3.2 L/kg
[22]
  Tmax: 0.31 h
[23]
  fraction unbound at 1 ug/ml: 0.63
[24]
  clearance: 44.7 mL/min/kg
[25]
  bioavailability: 4.9%
Streptococcus pyogenes [26]
  MIC: 4 µg/mL (≈ 3.97 µM)
Streptococcus pyogenes [27]
  MIC: ≤ 0.125 µg/mL
Rattus norvegicus
  CL free: 71 mL/min/kg
[28]
  Cmax: 3870 ng/mL
Liver [29]
  CLH: < 0.6 mL/min/g
[30]
  AUC(0-t): 50 to 520 ng·h/mL
Plasma [31]
  Drug uptake: Active
Streptococcus pneumoniae [32]
  MIC: 1 µg/mL (≈ 0.993 µM)
Staphylococcus aureus [33]
  MIC: 0.25 µg/mL (≈ 0.248 µM)
[34]
  remaining at 1 h, 1 µM: 100%

## CC[C@H]1OC(=O)[C@H](C)[C@@H](OC(=O)CCNCCNc2cc3c(=O)c(C(=O)O)cn(C4CC4)c3cc2Cl)[C@H](C)[C@@H](O[C@@H]2O[C@H](C)C[C@H](N(C)C)[C@H]2O)[C@](C)(OC/C=C/c2cnc3ccccc3c2)C[C@@H](C)NC(=O)[C@H](C)[C@@H](O)[C@]1(C)O
[1]
  AUC(0-t): 4800 to 10000 ng·h/mL
Liver [2]
  CLH: < 0.6 mL/min/g
Plasma [3]
  Stability: Stable
[4]
  remaining at 1 h, 1 µM: 100%
[5]
  fraction unbound at 1 ug/ml: 0.3
Staphylococcus aureus [7]
  MIC: > 64 µg/mL
Staphylococcus aureus [35]
  Ratio ED50: 4
Liver [8]
  CLH: < 0.6 mL/min/g
Streptococcus pneumoniae [9]
  ED50: 4.5 mg/kg
[10]
  AUC(0-inf): 8510 ng·h/mL
Staphylococcus aureus [11]
  MIC: ≤ 0.125 µg/mL
Streptococcus pyogenes [12]
  MIC: 0.25 µg/mL (≈ 0.221 µM)
[13]
  remaining at 1 h, 1 µM: 100%
[36]
  bioavailability: 41.8%
Haemophilus influenzae
  MIC: 1 µg/mL (≈ 0.882 µM)
[14]
  fraction unbound: 0.42
[16]
  half-life: 4.3 h
Staphylococcus aureus [17]
  ED50: 6 mg/kg
[37]
  Cmax: 630 ng/mL
Streptococcus pneumoniae [38]
  MIC: ≤ 0.125 µg/mL
Streptococcus pneumoniae [18]
  MIC: ≤ 0.06 µg/mL
[19]
  fraction unbound at 1 ug/ml: 0.4
[21]
  Vd: 6.7 L/kg
[23]
  fraction unbound at 1 ug/ml: 0.42
[24]
  clearance: 20.3 mL/min/kg
Streptococcus pyogenes [26]
  MIC: 4 µg/mL (≈ 3.53 µM)
[39]
  AUC(0-inf): 7500 ng·h/mL
[40]
  AUC(0-t): 2040 to 9730 ng·h/mL
[41]
  Tmax: 3.3 h
Streptococcus pyogenes [27]
  MIC: ≤ 0.06 µg/mL
Rattus norvegicus
  CL free: 48.3 mL/min/kg
[28]
  Cmax: 2480 ng/mL
Liver [29]
  CLH: < 0.6 mL/min/g
Streptococcus pneumoniae [32]
  MIC: ≤ 0.125 µg/mL
Staphylococcus aureus [33]
  MIC: 0.25 µg/mL (≈ 0.221 µM)
Streptococcus pneumoniae [42]
  Ratio ED50: 6
[34]
  remaining at 1 h, 1 µM: 100%

## CC[C@H]1OC(=O)[C@H](C)[C@@H](O[C@H]2C[C@@](C)(OC)[C@@H](O)[C@H](C)O2)[C@H](C)[C@@H](O[C@@H]2O[C@H](C)C[C@H](N(C)C)[C@H]2O)[C@](C)(O)C[C@@H](C)CN(C)[C@H](C)[C@@H](O)[C@]1(C)O [AZITHROMYCIN]
[4]
  remaining at 1 h, 1 µM: 100%
[5]
  fraction unbound at 1 ug/ml: 0.73
Staphylococcus aureus [7]
  MIC: > 64 µg/mL
Staphylococcus aureus [11]
  MIC: 1 µg/mL (≈ 1.34 µM)
Streptococcus pyogenes [12]
  MIC: 1 µg/mL (≈ 1.34 µM)
[13]
  remaining at 1 h, 1 µM: 100%
Haemophilus influenzae
  MIC: 1 µg/mL (≈ 1.34 µM)
Streptococcus pneumoniae [38]
  MIC: 4 µg/mL (≈ 5.34 µM)
Streptococcus pneumoniae [18]
  MIC: ≤ 0.125 µg/mL
[19]
  fraction unbound at 1 ug/ml: 0.64
[23]
  fraction unbound at 1 ug/ml: 0.72
Streptococcus pyogenes [26]
  MIC: > 64 µg/mL
Streptococcus pyogenes [27]
  MIC: ≤ 0.125 µg/mL
Staphylococcus aureus [43]
  Ratio: 64
Streptococcus pneumoniae [32]
  MIC: > 64 µg/mL
Staphylococcus aureus [33]
  MIC: > 64 µg/mL
[34]
  remaining at 1 h, 1 µM: 100%
